Active and inactive are the calls of the source. The calls are words filed in the database; no cut-off is given here.

By inhibition is commonly meant the relative decrease from the control value, in per cent.

Series [1] concerns RAW264.7. Nature of the series: Antiinflammatory activity against LPS-stimulated […] at 100 uM after 24 hrs by ELISA relative to control. It is filed as functional. As to conditions: RAW264.7, 24 h. For orientation: ELISA stands for enzyme-linked immunosorbent assay.
Series [2] concerns RAW264.7. Nature of the series: Cytotoxicity against […] assessed as effect on cell viability at 100 uM after 2 hrs by MTT assay. Format: cell-based. Particulars: raw264.7, 2 h. (Formazan colour is commonly taken as a measure of viable cells.)
Series [3] deals with Splenocyte. Nature of the series: Antiinflammatory activity against LPS-stimulated splenocytes isolated from thioglycolate-stimulated C57BL/6 mouse at 10 uM after 24 hrs by ELISA relative to control. It is filed as functional, cell-based.
The test system of series [4] is Splenocyte. Nature of the series: Antiinflammatory activity against LPS-stimulated splenocytes isolated from thioglycolate-stimulated C57BL/6 mouse at 10 to 100 uM after 24 hrs by ELISA relative to control. Format: functional, cell-based.
Series [5] can be described thus: Cytotoxicity against splenocytes isolated from thioglycolate-stimulated C57BL/6 mouse at 10 to 100 uM after 2 hrs by MTT assay. Format: cell-based. As to conditions: splenocyte.
A short description of series [6]: Cytotoxicity against LPS-stimulated splenocytes isolated from thioglycolate-stimulated C57BL/6 mouse assessed as alterations in forward and side scattering distribution for splenocytes using propidium iodide-staining after 24 hrs by FACS analysis. Format: cell-based. Particulars: splenocyte. On the technique in general: A flow cytometer gives signals particle by particle.

The nature of series [7]: Cytotoxicity against LPS-stimulated splenocytes isolated from thioglycolate-stimulated C57BL/6 mouse assessed as alterations in forward and side scattering distribution for splenocytes using propidium iodide-staining after 48 hrs by FACS analysis. It is filed as cell-based. As to conditions: splenocyte.
A short description of series [8]: Toxicity in LPS-stimulated splenocytes cells isolated from thioglycolate-stimulated C57BL/6 mouse assessed as decrease in live cells at 100 uM after 48 hrs using propidium iodide-staining by FACS analysis. Particulars: splenocyte. It is filed as cell-based.
The test system of series [9] is RAW264.7. Nature of the series: Toxicity in LPS-stimulated […] assessed as decrease in live cells at 100 uM using propidium iodide-staining by FACS analysis. Format: cell-based. Particulars: raw264.7, 100 µM.
The target in series [10] is Disintegrin and metalloproteinase domain-containing protein 17 (Homo sapiens) (UniProt P78536). Nature of the series: Inhibition of recombinant TACE using Mca-P-L-A-Q-A-V-Dpa-R-S-S-S-R-NH2 as substrate at 1 to 100 uM after 3 hrs by fluorescence assay.
Series [11] can be described thus: Antiinflammatory activity against LPS-stimulated splenocytes cells isolated from thioglycolate-stimulated C57BL/6 mouse assessed as reduction of TNFalpha mRNA level at 100 to 200 uM after 24 hrs by RT-PCR. Format: functional, Splenocyte.
Series [12] in a line: Toxicity in LPS-stimulated splenocytes cells isolated from thioglycolate-stimulated C57BL/6 mouse assessed as decrease in live cells at 100 uM after 24 hrs using propidium iodide-staining by FACS analysis. It is filed as cell-based. Particulars: splenocyte.
In series [13] the test system is RAW264.7. Nature of the series: Antiinflammatory activity against LPS-stimulated […] at 10 uM after 24 hrs by ELISA relative to control. Format: functional. Particulars: RAW264.7, 24 h.
Series [14] deals with RAW264.7. Nature of the series: Cytotoxicity against […] assessed as effect on cell viability at 10 uM after 2 hrs by MTT assay. Format: cell-based. As to conditions: raw264.7, 2 h.
Series [15] is described as follows: Cytotoxicity against splenocytes isolated from thioglycolate-stimulated C57BL/6 mouse at 10 uM after 2 hrs by MTT assay. Format: cell-based. Particulars: splenocyte.
Series [16] is described as follows: Toxicity in LPS-stimulated splenocytes isolated from thioglycolate-stimulated C57BL/6 mouse assessed as decrease in live cells at 10 uM after 24 hrs using propidium iodide-staining by FACS analysis. Format: cell-based. As to conditions: splenocyte.
Series [17] in a line: Toxicity in LPS-stimulated splenocytes isolated from thioglycolate-stimulated C57BL/6 mouse assessed as decrease in live cells at 10 uM after 48 hrs using propidium iodide-staining by FACS analysis. Particulars: splenocyte. It is filed as cell-based.

Disintegrin and metalloproteinase domain-containing protein 17 (Homo sapiens), sequence (P78536 whole entry, the tested form may be a part): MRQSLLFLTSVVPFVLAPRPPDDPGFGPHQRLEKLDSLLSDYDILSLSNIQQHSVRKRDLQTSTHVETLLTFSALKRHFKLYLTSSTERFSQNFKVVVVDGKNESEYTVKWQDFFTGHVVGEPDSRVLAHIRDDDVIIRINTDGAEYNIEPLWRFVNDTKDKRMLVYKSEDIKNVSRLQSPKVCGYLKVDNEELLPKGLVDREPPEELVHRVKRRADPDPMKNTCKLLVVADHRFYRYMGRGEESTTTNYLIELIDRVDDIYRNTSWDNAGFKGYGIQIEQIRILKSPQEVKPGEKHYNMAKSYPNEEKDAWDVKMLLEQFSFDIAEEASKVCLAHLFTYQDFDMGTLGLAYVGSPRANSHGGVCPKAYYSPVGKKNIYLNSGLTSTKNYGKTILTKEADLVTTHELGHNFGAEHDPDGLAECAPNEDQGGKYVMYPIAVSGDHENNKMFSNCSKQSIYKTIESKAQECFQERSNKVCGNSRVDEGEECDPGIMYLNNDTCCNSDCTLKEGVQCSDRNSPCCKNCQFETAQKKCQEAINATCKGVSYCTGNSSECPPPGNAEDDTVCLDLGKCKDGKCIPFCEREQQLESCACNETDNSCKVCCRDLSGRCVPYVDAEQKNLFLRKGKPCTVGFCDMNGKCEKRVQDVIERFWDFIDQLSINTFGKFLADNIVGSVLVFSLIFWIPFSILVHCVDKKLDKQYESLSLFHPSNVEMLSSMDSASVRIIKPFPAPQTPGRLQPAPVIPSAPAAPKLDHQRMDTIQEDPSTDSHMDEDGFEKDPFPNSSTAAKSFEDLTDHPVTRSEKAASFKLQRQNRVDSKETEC

The compound `O=C(NCCN1CCCC1)P(=O)(O)O` displayed an inhibition at 100 µM in the series on RAW264.7 [1] of 60%. Further, the Activity result (in the series with RAW264.7 [2]; in [5]; in [6]; in series [7]; in series [8]; in the series with RAW264.7 [9]) was “Non-toxic” each time. Also, in [12], the Activity entry is recorded as “Non-toxic”. The inhibition result in the series on Splenocyte [3] and in the series with Splenocyte [4] was “Active” each time. The inhibition entry in [10] was “inactive”. In addition, the “inhibition (INH)” value in series [11] is on record as 30%.

As to `CCCC1O[C@@H]2C[C@H]3[C@@H]4CCC5=CC(=O)C=C[C@]5(C)[C@H]4[C@@H](O)C[C@]3(C)[C@]2(C(=O)CO)O1` (stereo not given in full) [BUDESONIDE], the inhibition at 10 µM in the series with RAW264.7 [13] worked out at 60%. In addition, the Activity entry in the series with RAW264.7 [14] is on record as “Non-toxic”; in [15] it was “Non-toxic”; in series [16], “Toxic”; in series [17] it was “Toxic”. Besides, the inhibition result in the series with Splenocyte [3] is “Active”.

For the compound `O=C(NCCN1CCCCC1)P(=O)(O)O`, 100 µM produced 60% inhibition in the series with RAW264.7 [1]. The Activity entry (with RAW264.7 [2]; in series [5]; in series [6]; in [7]; in series [8]; in the series on RAW264.7 [9]) was “Non-toxic” throughout. In addition, the Activity result in series [12] is “Non-toxic”. In addition, the inhibition result (in the series on Splenocyte [4]; in series [10]) was “Active” each time. Further, the “inhibition (INH)” value in series [11] is 30%.

Compound `N[C@H]1CCCC[C@H]1NC(=O)P(=O)(O)O` (relative stereo) had an inhibition at 100 µM with RAW264.7 [1] of 60%. Besides, the Activity entry (in the series with RAW264.7 [2]; in series [5]; in [6]; in [7]; in [8]; in the series on RAW264.7 [9]) was “Non-toxic” throughout. Further, in series [12], the Activity result is “Non-toxic”. Moreover, the inhibition entry in the series on Splenocyte [4] was “Active”. For the same compound, the inhibition result in series [10] is “inactive”. Further, the “inhibition (INH)” value in series [11] is on record as 30%.

Values taken from ChEMBL document CHEMBL1799958, “Aminoalkylcarbamoylphosphonates reduce TNFα release from activated immune cells” (Bioorg Med Chem Lett, 2010).
